Patent US20190292155A1, “THERAPEUTIC INHIBITORY COMPOUNDS” (LifeSci Pharmaceuticals, Inc., priority 2016, published 2019)

Target: T1, human complement factor D (Homo sapiens, UniProt P00746)
T1 construct: purchased R&D Systems 1824-SE
Assay: In vitro enzyme inhibition of human complement factor D (Z-Lys-SBzl/DTNB, A405)
Assay type: biochemical
Settings: biochemical assay, substrate Z-Lys-SBzl; read-out: CFD IC50
Procedure: The ability of the compounds disclosed herein to inhibit human complement factor D inhibitory activity was quantified according to the 12-step protocol provided below. • 1. Prepare assay buffer: 50 mM Tris/HCl, pH 7.5, 1 M NaCl. • 2. […] Then dilute the serial concentrations of Nafamostat Mesilate 20-fold in assay buffer. • 3. […] 0.5% DMSO was in each well finally. • 4. […] Add 10 μl diluted test compounds duplicated into the 96-well plate. […] 0.5% DMSO was in each well finally. • 6. Dilute 20 mM substrate Z-Lys-SBzl (Bachem, Cat# M-1300) to 200 μM in assay buffer with 200 μM DTNB (Sigma, Catalog# D8130). • 7. […] Add 40 μl diluted Complement Factor D in the 96-well plate. • 8. Positive control well contains Complement Factor D without test compound. Negative control well contains neither Complement Factor D nor test compound. Using assay buffer, bring the total volume of all controls to 50 al. • 9. Pre-incubate the plate for 5 min at room temperature. • 10. Add 50 μl of diluted substrate/DTNB mixture into each well. […] For kinetic reading: Immediately start measuring absorbance (A405 nm) continuously and record data every 30 sec for 60 min. • 12. Data analysis • Inhibition activity of compound was evaluated by IC50. IC50 was calculated according the dose-response curve of compound fitted using GraphPadPrism with “log(inhibitor)-response (variable slope)” equation. • % inhibition was calculated by using following equation:
[formula] • Mean(NC): The average value of the negative control wells' A405 nm values. • Mean(PC): The average value of the positive control wells' A405 nm values.

T1 sequence (P00746 26-253): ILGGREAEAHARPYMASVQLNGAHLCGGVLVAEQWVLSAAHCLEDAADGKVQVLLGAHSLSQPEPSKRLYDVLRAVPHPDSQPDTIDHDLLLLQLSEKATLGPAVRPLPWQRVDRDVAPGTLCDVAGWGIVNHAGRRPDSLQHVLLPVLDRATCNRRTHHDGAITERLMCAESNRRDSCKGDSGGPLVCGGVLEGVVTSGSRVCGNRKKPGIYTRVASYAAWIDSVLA

SMILES | IC50
C[C@@H](C(=O)Nc1cccc(Cl)c1F)N(C)C(=O)Cn1nc(C(N)=O)c2ccccc21 [Example 2, (S)-1-(2-((1-((3-chloro-2-fluorophenyl)amino)-1-oxopropan-2-yl)(methyl)amino)-2-oxoethyl)-1H-indazole-3-carboxamide] | 1000 to 10000 nM
C[C@@H](C(=O)NCc1cccc(Cl)c1F)N(C)C(=O)Cn1nc(C(N)=O)c2ccccc21 [Example 3, (S)-1-(2-((1-((3-chloro-2-fluorobenzyl)amino)-1-oxopropan-2-yl)(methyl)amino)-2-oxoethyl)-1H-indazole-3-carboxamide] | 1000 to 10000 nM
NC(=O)c1nn(CC(=O)N(CC(=O)Nc2cccc(Cl)c2F)C2CC2)c2ccccc12 [Example 7, 1-(2-((2-((3-chloro-2-fluorophenyl)amino)-2-oxoethyl)(cyclopropyl)amino)-2-oxoethyl)-1H-indazole-3-carboxamide] | 100 to 1000 nM
CC1(C)CC(O)CC(NC(=O)CN(C(=O)Cn2nc(C(N)=O)c3ccccc32)C2CC2)C1 (stereo not drawn) [Example 9, 1-(2-(cyclopropyl(2-((5-hydroxy-3,3-dimethylcyclohexyl)amino)-2-oxoethyl)amino)-2-oxoethyl)-1H-indazole-3-carboxamide] | 1000 to 10000 nM
CC1(C)C[C@H](O)C[C@@H](NC(=O)CN(C(=O)Cn2nc(C(N)=O)c3ccccc32)C2CC2)C1 [Example 10, 1-(2-(cyclopropyl(2-(((1S,5S)-5-hydroxy-3,3-dimethylcyclohexyl)amino)-2-oxoethyl)amino)-2-oxoethyl)-1H-indazole-3-carboxamide] | 1000 to 10000 nM
NC(=O)c1nn(CC(=O)N(CCO)CC(=O)Nc2cccc(Cl)n2)c2ccccc12 [Example 13, 1-(2-((2-((6-chloropyridin-2-yl)amino)-2-oxoethyl)(2-hydroxyethyl)amino)-2-oxoethyl)-1H-indazole-3-carboxamide] | 1000 to 10000 nM
CN(CC(=O)Nc1cccc(Cl)n1)C(=O)Cn1nc(C(N)=O)c2ccccc21 [Example 14, 1-(2-((2-((6-chloropyridin-2-yl)amino)-2-oxoethyl)(methyl)amino)-2-oxoethyl)-1H-indazole-3-carboxamide] | 1000 to 10000 nM
CCN(CC(=O)Nc1cccc(Cl)n1)C(=O)Cn1nc(C(N)=O)c2ccccc21 [Example 15, 1-(2-((2-((6-chloropyridin-2-yl)amino)-2-oxoethyl)(ethyl)amino)-2-oxoethyl)-1H-indazole-3-carboxamide] | 100 to 1000 nM
NC(=O)c1nn(CC(=O)N(CC(=O)Nc2cccc(Cl)n2)C2CCNCC2)c2ccccc12 [Example 17, 1-(2-((2-((6-chloropyridin-2-yl)amino)-2-oxoethyl)(piperidin-4-yl)amino)-2-oxoethyl)-1H-indazole-3-carboxamide] | 1000 to 10000 nM
NCCN(CC(=O)Nc1cccc(Cl)n1)C(=O)Cc1nn(C(N)=O)c2ccccc12 [Example 18, 3-(2-((2-aminoethyl)(2-((6-chloropyridin-2-yl)amino)-2-oxoethyl)amino)-2-oxoethyl)-1H-indazole-1-carboxamide] | 1000 to 10000 nM
NC(=O)n1nc(CC(=O)N(CC(=O)Nc2cccc(Cl)n2)C2CCCC2)c2ccccc21 [Example 19, 3-(2-((2-((6-chloropyridin-2-yl)amino)-2-oxoethyl)(cyclopentyl)amino)-2-oxoethyl)-1H-indazole-1-carboxamide] | 100 to 1000 nM
NC(=O)n1nc(CC(=O)N(CC(=O)Nc2cccc(Cl)n2)C2CCOCC2)c2ccccc21 [Example 21, 3-(2-((2-((6-chloropyridin-2-yl)amino)-2-oxoethyl)(tetrahydro-2H-pyran-4-yl)amino)-2-oxoethyl)-1H-indazole-1-carboxamide] | 1000 to 10000 nM
NC(=O)c1nn(CC(=O)N(CC(=O)Nc2cccc(Cl)n2)C2CNC2)c2ccccc12 [Example 22, 1-(2-(azetidin-3-yl(2-((6-chloropyridin-2-yl)amino)-2-oxoethyl)amino)-2-oxoethyl)-1H-indazole-3-carboxamide] | 1000 to 10000 nM
CNCCN(CC(=O)Nc1cccc(Cl)n1)C(=O)Cn1nc(C(N)=O)c2ccccc21 [Example 23, 1-(2-((2-((6-chloropyridin-2-yl)amino)-2-oxoethyl)(2-(methylamino)ethyl)amino)-2-oxoethyl)-1H-indazole-3-carboxamide] | 1000 to 10000 nM
CC(=O)NCCN(CC(=O)Nc1cccc(Cl)n1)C(=O)Cn1nc(C(N)=O)c2ccccc21 [Example 24, 1-(2-((2-acetamidoethyl)(2-((6-chloropyridin-2-yl)amino)-2-oxoethyl)amino)-2-oxoethyl)-1H-indazole-3-carboxamide] | 1000 to 10000 nM
NC(=O)c1nn(CC(=O)N(CC(=O)Nc2cccc(Cl)n2)Cc2ccncc2)c2ccccc12 [Example 25, 1-(2-((2-((6-chloropyridin-2-yl)amino)-2-oxoethyl)(pyridin-4-ylmethyl)amino)-2-oxoethyl)-1H-indazole-3-carboxamide] | > 10000 nM
NC(=O)c1nn(CC(=O)N(CC(=O)Nc2cccc(Cl)n2)C2CCNC2)c2ccccc12 (stereo not drawn) [Example 26, 1-(2-((2-((6-chloropyridin-2-yl)amino)-2-oxoethyl)(pyrrolidin-3-yl)amino)-2-oxoethyl)-1H-indazole-3-carboxamide] | 1000 to 10000 nM

Continued, values first:

IC50 | SMILES
1000 to 10000 nM | NC(=O)c1nn(CC(=O)N(CC(=O)NCc2cccc(Cl)c2F)Cc2ccsc2)c2ccccc12 [Example 27, 1-(2-((2-((3-chloro-2-fluorobenzyl)amino)-2-oxoethyl)(thiophen-3-ylmethyl)amino)-2-oxoethyl)-1H-indazole-3-carboxamide]
1000 to 10000 nM | NC(=O)c1nn(CC(=O)N(CC(=O)NCc2cccc(Cl)c2F)C2CCOCC2)c2ccccc12 [Example 29, 1-(2-((2-((3-chloro-2-fluorobenzyl)amino)-2-oxoethyl)(tetrahydro-2H-pyran-4-yl)amino)-2-oxoethyl)-1H-indazole-3-carboxamide]
100 to 1000 nM | NCCN(CC(=O)NCc1cccc(Cl)c1F)C(=O)Cn1nc(C(N)=O)c2ccccc21 [Example 31, 1-(2-((2-aminoethyl)(2-((3-chloro-2-fluorobenzyl)amino)-2-oxoethyl)amino)-2-oxoethyl)-1H-indazole-3-carboxamide]
1000 to 10000 nM | NC(=O)c1nn(CC(=O)N(CC(=O)NCc2cccc(Cl)c2F)Cc2ccncc2)c2ccccc12 [Example 32, 1-(2-((2-((3-chloro-2-fluorobenzyl)amino)-2-oxoethyl)(pyridin-4-ylmethyl)amino)-2-oxoethyl)-1H-indazole-3-carboxamide]
1000 to 10000 nM | NC(=O)c1nn(CC(=O)N(CC(=O)NCc2cccc(Cl)c2F)Cc2cccnc2)c2ccccc12 [Example 35, 1-(2-((2-((3-chloro-2-fluorobenzyl)amino)-2-oxoethyl)(pyridin-3-ylmethyl)amino)-2-oxoethyl)-1H-indazole-3-carboxamide]
1000 to 10000 nM | NC(=O)c1nn(CC(=O)N(CC(=O)NCc2cccc(Cl)c2F)c2ccccc2)c2ccccc12 [Example 36, 1-(2-((2-((3-chloro-2-fluorobenzyl)amino)-2-oxoethyl)(phenyl)amino)-2-oxoethyl)-1H-indazole-3-carboxamide]
1000 to 10000 nM | NC(=O)c1nn(CC(=O)N(CC(=O)NCc2cccc(Cl)c2F)C2CCNC2)c2ccccc12 (stereo not drawn) [Example 37, 1-(2-((2-((3-chloro-2-fluorobenzyl)amino)-2-oxoethyl)(pyrrolidin-3-yl)amino)-2-oxoethyl)-1H-indazole-3-carboxamide]
